Source: PubChem BioAssay AID1259411 (Chemical Carcinogenesis Research Information System (CCRIS), 2018)
Activity calls are given as the source filed them. The rule behind the calls is not given here.

Tested on: rodent carcinogenicity bioassays, tumor incidence
Experiment: CCRIS carcinogenicity studies
Conditions: Dose: 0, Dose: 0
Method in brief: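 NCI-built, expert-reviewed records of carcinogenicity and related test outcomes (mutagenicity, tumor promotion/inhibition) compiled from published and report sources, historical span 1985-2011, not updated.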

Question: For `O=C(O)C(Cl)Cl`, which carcinogen call (Species: MOUSE, Strain/Sex: B6C3F1/FEMALE, Route: ORAL, 2, 6.67, 20 MMOL/L IN DRINKING WATER FOR 360 D (STUDY DURATION: 360 D), 2, 6.67, 20 MMOL/L IN DRINKING WATER FOR 360 D (STUDY DURATION: 360 D), Tumor Site: Type of Lesion: LIVER: ADENOMA) is on record?
Answer: Its carcinogen call is “active; positive”.

Question: What about the carcinogen call (Species: MOUSE, Strain/Sex: B6C3F1/FEMALE, Route: ORAL, 2, 6.67, 20 MMOL/L IN DRINKING WATER FOR 576 D (STUDY DURATION: 576 D), 2, 6.67, 20 MMOL/L IN DRINKING WATER FOR 576 D (STUDY DURATION: 576 D), Tumor Site: Type of Lesion: LIVER: ADENOMA, CARCINOMA) of the same compound?
Answer: The carcinogen call was “active; positive”.

Question: And the carcinogen call (Species: MOUSE, Strain/Sex: B6C3F1/FEMALE, Route: ORAL, 2 G/L (TOTAL DOSE) IN DRINKING WATER FOR 52 WK (STUDY DURATION: 52 WK))?
Answer: The carcinogen call was “inactive; negative”.

Question: And the carcinogen call (Species: MOUSE, Strain/Sex: B6C3F1/FEMALE, Route: ORAL, 20 MMOL/L IN DRINKING WATER FOR 24 D FOLLOWED BY 48 D WITHOUT EXPOSURE THIS 72-DAY CYCLE REPEATED FOR THE DURATION OF)?
Answer: The carcinogen call was “inactive; negative”.

Question: And the carcinogen call (Species: MOUSE, Strain/Sex: B6C3F1/MALE, Route: ORAL, 0.5, 1.0, 2, 3.5 G/L IN DRINKING WATER FOR 26 WK (STUDY DURATION: 26 WK), 0.5, 1.0, 2, 3.5 G/L IN DRINKING WATER FOR 26 WK (STUDY DURATION: 26 WK))?
Answer: The carcinogen call was “inactive; negative”.

Question: What about the carcinogen call (Species: MOUSE, Strain/Sex: B6C3F1/MALE, Route: ORAL, 0.5, 1.0, 2, 3.5 G/L IN DRINKING WATER FOR 52 WK (STUDY DURATION: 52 WK), 0.5, 1.0, 2, 3.5 G/L IN DRINKING WATER FOR 52 WK (STUDY DURATION: 52 WK), Tumor Site: Type of Lesion: LIVER: HEPATOCELLULAR ADENOMA OR CARCINOMA) of the same compound?
Answer: Its carcinogen call is “active; positive”.

Question: And the carcinogen call (Species: MOUSE, Strain/Sex: B6C3F1/MALE, Route: ORAL, 0.5, 1.0, 2, 3.5 G/L IN DRINKING WATER FOR 78 WK (STUDY DURATION: 78 WK), 0.5, 1.0, 2, 3.5 G/L IN DRINKING WATER FOR 78 WK (STUDY DURATION: 78 WK), Tumor Site: Type of Lesion: LIVER: HEPATOCELLULAR ADENOMA OR CARCINOMA)?
Answer: The carcinogen call was “active; positive”.

Question: What about the carcinogen call (Species: MOUSE, Strain/Sex: B6C3F1/MALE, Route: ORAL, 0.5, 1.0, 2, 3.5 G/L IN DRINKING WATER FOR 100 WK (STUDY DURATION: 100 WK), 0.5, 1.0, 2, 3.5 G/L IN DRINKING WATER FOR 100 WK (STUDY DURATION: 100 WK), Tumor Site: Type of Lesion: LIVER: HEPATOCELLULAR ADENOMA OR CARCINOMA) of the same compound?
Answer: The carcinogen call was “active; positive”.

Question: What about the carcinogen call (Species: MOUSE, Strain/Sex: B6C3F1/MALE, Route: ORAL, 0.5 G/L DISTILLED DRINKING WATER FOR STUDY DURATION (93 MG/KG/D) (STUDY DURATION: 104 WK), Tumor Site: Type of Lesion: LIVER: HEPATOCELLULAR CARCINOMA, HEPATOCELLULAR ADENOMA) of the same compound?
Answer: The carcinogen call was “active; positive”.

Question: What about the carcinogen call (Species: MOUSE, Strain/Sex: B6C3F1/MALE, Route: ORAL, 1, 2 G/L IN DRINKING WATER FOR 52 WK (STUDY DURATION: 52 WK), 1, 2 G/L IN DRINKING WATER FOR 52 WK (STUDY DURATION: 52 WK), Tumor Site: Type of Lesion: LIVER: ADENOMA OR HEPATOCELLULAR CARCINOMA) of the same compound?
Answer: The carcinogen call was “active; positive”.

Question: And the carcinogen call (Species: MOUSE, Strain/Sex: B6C3F1/MALE, Route: ORAL, 1 G, 2 G/L (TOTAL DOSE) IN DRINKING WATER FOR 52 WK (STUDY DURATION: 52 WK), 1 G, 2 G/L (TOTAL DOSE) IN DRINKING WATER FOR 52 WK (STUDY DURATION: 52 WK), Tumor Site: Type of Lesion: LIVER: HEPATOCELLULAR CARCINOMA, ADENOMA, HYPERPLASTIC NODULES)?
Answer: The carcinogen call was “active; positive”.

Question: What about the carcinogen call (Species: MOUSE, Strain/Sex: B6C3F1/MALE, Route: ORAL, 2 G/L (TOTAL DOSE) IN DRINKING WATER FOR 37 WK (STUDY DURATION: 52 WK), Tumor Site: Type of Lesion: LIVER: ADENOMA, HYPERPLASTIC NODULES) of the same compound?
Answer: The carcinogen call was “active; positive”.

Question: And the carcinogen call (Species: MOUSE, Strain/Sex: B6C3F1/MALE, Route: ORAL, 5 G/L (0; 39 MILLIMOLAR) IN DRINKING WATER FOR 61 WK (STUDY DURATION: 61 WK), 5 G/L (0; 39 MILLIMOLAR) IN DRINKING WATER FOR 61 WK (STUDY DURATION: 61 WK), Tumor Site: Type of Lesion: LIVER: CARCINOMA)?
Answer: The carcinogen call was “active; positive”.

Question: What about the carcinogen call (Species: RAT, Strain/Sex: F344/MALE, Route: ORAL, 0.05, 0.5 G/L IN DRINKING WATER FOR 100 WK (STUDY DURATION: 100 WK), 0.05, 0.5 G/L IN DRINKING WATER FOR 100 WK (STUDY DURATION: 100 WK), Tumor Site: Type of Lesion: LIVER: HEPATOCELLULAR ADENOMA OR CARCINOMA) of the same compound?
Answer: The carcinogen call was “active; positive”.

Question: What about the carcinogen call (Species: RAT, Strain/Sex: F344/MALE, Route: ORAL, 2.5 G/L IN DRINKING WATER DOSE LOWERED TO 1 G/L AFTER 18 WK (STUDY DURATION: 103 WK), Tumor Site: Type of Lesion: LIVER: HEPATOCELLULAR ADENOMA OR CARCINOMA) of the same compound?
Answer: The carcinogen call was “active; positive”.

Question: `O=C1OC(O)C(C(Cl)Cl)=C1Cl` (centres undefined) was tested. Which carcinogen call (Species: RAT, Strain/Sex: WISTAR/FEMALE, Route: ORAL, 0.6, 1.9, 6.6 MG/KG BW IN DRINKING WATER FOR 104 WK (STUDY DURATION: 104 WK), 0.6, 1.9, 6.6 MG/KG BW IN DRINKING WATER FOR 104 WK (STUDY DURATION: 104 WK), Tumor Site: Type of Lesion: MAMMARY GLAND: ADENOCARCINOMA, FIBROADENOMA, HEMATOPOIETIC SYSTEM: LYMPHOMA OR LEUKEMIA, LIVER: CHOLANGIOMA, ADENOMA, AD, Tumor Site: Type of Lesion: MAMMARY GLAND: ADENOCARCINOMA, FIBROADENOMA, HEMATOPOIETIC SYSTEM: LYMPHOMA OR LEUKEMIA, LIVER: CHOLANGIOMA, ADENOMA, AD) did it give?
Answer: The carcinogen call was “active; positive”.

Question: And the carcinogen call (Species: RAT, Strain/Sex: WISTAR/MALE, Route: ORAL, 0.4, 1.3, 5 MG/KG BW IN DRINKING WATER FOR 104 WK (STUDY DURATION: 104 WK), 0.4, 1.3, 5 MG/KG BW IN DRINKING WATER FOR 104 WK (STUDY DURATION: 104 WK), Tumor Site: Type of Lesion: SKIN (SUBCUTANEOUS TISSUE): BASAL CELL TUMOR, LUNG: ALVEOLAR/BRONCHIOLAR ADENOMA, LIVER: CHOLANGIOMA,ADENOMA, PANCREAS (, Tumor Site: Type of Lesion: SKIN (SUBCUTANEOUS TISSUE): BASAL CELL TUMOR, LUNG: ALVEOLAR/BRONCHIOLAR ADENOMA, LIVER: CHOLANGIOMA,ADENOMA, PANCREAS ()?
Answer: Its carcinogen call is “active; positive”.

Question: Which carcinogen call (Species: MOUSE, Strain/Sex: B6C3F1/FEMALE, Route: GAVAGE, 400, 800 MG/KG IN CORN OIL 5D/WK FOR 103 WK (STUDY DURATION: 105 WK), 400, 800 MG/KG IN CORN OIL 5D/WK FOR 103 WK (STUDY DURATION: 105 WK)) does the source give for `Nc1ccc([N+](=O)[O-])cc1O` here?
Answer: The carcinogen call was “inactive; negative”.

Question: And the carcinogen call (Species: MOUSE, Strain/Sex: B6C3F1/MALE, Route: GAVAGE, 400, 800 MG/KG IN CORN OIL 5D/WK FOR 103 WK (STUDY DURATION: 105 WK), 400, 800 MG/KG IN CORN OIL 5D/WK FOR 103 WK (STUDY DURATION: 105 WK))?
Answer: Its carcinogen call is “inactive; negative”.

Question: And the carcinogen call (Species: RAT, Strain/Sex: F344/FEMALE, Route: GAVAGE, 100, 200 MG/KG IN CORN OIL 5D/WK FOR 103 WK (STUDY DURATION: 105 WK), 100, 200 MG/KG IN CORN OIL 5D/WK FOR 103 WK (STUDY DURATION: 105 WK))?
Answer: Its carcinogen call is “inactive; negative”.

Question: What about the carcinogen call (Species: RAT, Strain/Sex: F344/MALE, Route: GAVAGE, 100, 200 MG/KG IN CORN OIL 5D/WK FOR 103 WK (STUDY DURATION: 105 WK), 100, 200 MG/KG IN CORN OIL 5D/WK FOR 103 WK (STUDY DURATION: 105 WK), Tumor Site: Type of Lesion: PANCREAS: ACINAR CELL ADENOMA, PANCREAS: ACINAR CELL ADENOMA OR CARCINOMA) of the same compound?
Answer: Its carcinogen call is “active; positive”.

Question: How did the carcinogen call (Species: RAT, Strain/Sex: STRAIN-CD/MALE, Route: SUBCUTANEOUS, 1 MG IN CASTOR OIL 1/4 WK FOR LIFE (STUDY DURATION: LIFE), Tumor Site: Type of Lesion: MAMMARY GLAND: TUMOR) turn out when `CCCCC(=O)O[C@H]1CC[C@H]2[C@@H]3CCc4cc(O)ccc4[C@H]3CC[C@]12C` was run?
Answer: Its carcinogen call is “active; positive”.

Question: For `[K+]`, which carcinogen call (Species: RAT, Strain/Sex: F344/FEMALE, Route: ORAL, 10, 100, 1000 PPM IN DRINKING WATER FOR 2 YR (STUDY DURATION: 2 YR), 10, 100, 1000 PPM IN DRINKING WATER FOR 2 YR (STUDY DURATION: 2 YR), Tumor Site: Type of Lesion: SALIVARY GLAND: SQUAMOUS CELL CARCINOMA) is on record?
Answer: The carcinogen call was “active; positive”.

Question: What about the carcinogen call (Species: RAT, Strain/Sex: F344/MALE, Route: ORAL, 10, 100, 1000 PPM IN DRINKING WATER FOR 2 YR (STUDY DURATION: 2 YR), 10, 100, 1000 PPM IN DRINKING WATER FOR 2 YR (STUDY DURATION: 2 YR), Tumor Site: Type of Lesion: SALIVARY GLAND: SQUAMOUS CELL CARCINOMA) of the same compound?
Answer: The carcinogen call was “active; positive”.
